What is called AC50 is the midpoint of the concentration-response curve, whichever way the signal moves. A higher AC50 goes with weaker potency.

In the test the target is T1, Thromboxane A2 receptor (Homo sapiens, UniProt P21731).
T1 sequence (P21731 whole entry): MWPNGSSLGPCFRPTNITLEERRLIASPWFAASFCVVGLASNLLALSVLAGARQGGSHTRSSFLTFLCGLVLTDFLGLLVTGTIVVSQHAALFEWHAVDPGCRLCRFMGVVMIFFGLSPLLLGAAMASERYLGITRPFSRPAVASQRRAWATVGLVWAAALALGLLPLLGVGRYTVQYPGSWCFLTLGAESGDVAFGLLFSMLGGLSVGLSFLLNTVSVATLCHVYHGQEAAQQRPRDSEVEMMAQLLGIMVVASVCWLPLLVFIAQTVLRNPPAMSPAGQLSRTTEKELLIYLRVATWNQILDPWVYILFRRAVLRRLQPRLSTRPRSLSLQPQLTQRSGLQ
Type of test: functional, cell-based.
Also: assay procedure not described here.

With `O=C(Nc1ccccc1)OCC(CN1CCCCC1)OC(=O)Nc1ccccc1` (stereo unspecified) [DIPERODON], the AC50 is > 30 µM.

The values above are taken from ChEMBL document CHEMBL5291721, “A preclinical secondary pharmacology resource illuminates target-adverse drug reaction associations of marketed drugs” (Nat Commun, 2023).
